Results on 19 molecules are retold here after ChEMBL document CHEMBL4351011, “Design, synthesis and biological evaluations of 2-amino-4-(1-piperidine) pyridine derivatives as novel anti crizotinib-resistant ALK/ROS1 dual inhibitors” (Eur J Med Chem, 2019).

Experiment [1] concerns the target T1, Proto-oncogene tyrosine-protein kinase ROS (Homo sapiens, UniProt P08922).
In another experiment the test system is A549. The experiment can be described thus: cells. The settings on record: Homo sapiens, A549, 72 h.
Another experiment relates to NCI-H3122. The experiment in a line: cells. The settings on record: Homo sapiens, NCI-H3122, 72 h.
A further experiment concerns HCC78. The experiment can be described thus: cells. The settings on record: Homo sapiens, HCC78, 72 h.
Experiment [2] addresses T1, Proto-oncogene tyrosine-protein kinase ROS. This is another data set of the same source.
For experiment [3], the target named is T2, ALK tyrosine kinase receptor (Homo sapiens, UniProt Q9UM73).
In experiment [4] the target is T2, ALK tyrosine kinase receptor. Particulars: at 1 µM; call rule not given here.
Target sequence in this assay (Q9UM73 19-1620 limits assumed): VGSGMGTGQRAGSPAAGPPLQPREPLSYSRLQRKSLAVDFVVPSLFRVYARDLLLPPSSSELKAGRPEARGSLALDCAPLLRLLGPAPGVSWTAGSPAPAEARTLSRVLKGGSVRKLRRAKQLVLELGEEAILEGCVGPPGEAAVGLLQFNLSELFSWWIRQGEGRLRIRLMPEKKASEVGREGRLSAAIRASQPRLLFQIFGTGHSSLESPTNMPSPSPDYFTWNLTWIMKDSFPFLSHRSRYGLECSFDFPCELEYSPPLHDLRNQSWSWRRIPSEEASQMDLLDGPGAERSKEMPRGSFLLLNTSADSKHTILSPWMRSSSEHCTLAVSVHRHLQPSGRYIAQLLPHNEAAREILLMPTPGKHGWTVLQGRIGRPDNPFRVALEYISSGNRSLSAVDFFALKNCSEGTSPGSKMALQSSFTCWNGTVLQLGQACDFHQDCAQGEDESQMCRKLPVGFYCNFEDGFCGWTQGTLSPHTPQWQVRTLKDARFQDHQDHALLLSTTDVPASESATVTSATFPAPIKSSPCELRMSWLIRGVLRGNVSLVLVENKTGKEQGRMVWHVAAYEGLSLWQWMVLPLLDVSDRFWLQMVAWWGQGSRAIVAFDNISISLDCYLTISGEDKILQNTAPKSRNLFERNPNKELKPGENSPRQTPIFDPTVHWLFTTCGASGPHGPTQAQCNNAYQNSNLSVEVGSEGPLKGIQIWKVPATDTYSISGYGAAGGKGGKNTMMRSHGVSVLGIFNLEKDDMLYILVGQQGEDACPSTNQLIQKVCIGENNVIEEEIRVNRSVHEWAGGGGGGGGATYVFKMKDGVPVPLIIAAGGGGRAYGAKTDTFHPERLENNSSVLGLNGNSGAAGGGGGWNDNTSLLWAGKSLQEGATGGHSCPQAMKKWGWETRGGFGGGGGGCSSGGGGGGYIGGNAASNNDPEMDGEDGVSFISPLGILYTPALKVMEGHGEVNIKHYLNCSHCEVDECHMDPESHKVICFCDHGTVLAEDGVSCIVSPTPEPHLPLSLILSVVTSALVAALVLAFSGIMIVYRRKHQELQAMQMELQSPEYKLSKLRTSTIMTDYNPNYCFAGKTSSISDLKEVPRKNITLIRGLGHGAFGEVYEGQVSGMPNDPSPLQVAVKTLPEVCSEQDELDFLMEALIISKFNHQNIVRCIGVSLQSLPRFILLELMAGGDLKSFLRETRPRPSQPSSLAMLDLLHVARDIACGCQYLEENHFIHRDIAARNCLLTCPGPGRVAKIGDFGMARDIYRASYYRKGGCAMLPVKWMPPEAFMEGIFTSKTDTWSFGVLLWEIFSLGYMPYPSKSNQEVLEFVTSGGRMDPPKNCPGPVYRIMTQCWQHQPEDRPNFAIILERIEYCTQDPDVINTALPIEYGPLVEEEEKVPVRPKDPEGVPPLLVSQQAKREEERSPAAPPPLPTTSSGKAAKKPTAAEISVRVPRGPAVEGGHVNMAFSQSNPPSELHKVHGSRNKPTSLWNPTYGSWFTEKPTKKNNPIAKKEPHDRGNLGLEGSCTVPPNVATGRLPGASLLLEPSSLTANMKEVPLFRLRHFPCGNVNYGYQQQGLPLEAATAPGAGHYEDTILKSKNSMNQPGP
The target of experiment [5] is Tyrosine-protein kinase BTK (Homo sapiens) (UniProt Q06187). The experiment can be described thus: Inhibition of BTK (unknown origin) at 1 uM.
Experiment [6] concerns the target CDK2/Cyclin A2 (Homo sapiens) (UniProt P24941+P20248). The experiment can be described thus: Inhibition of CDK2/cyclinA (unknown origin) at 1 uM. The class given is protein-complex assay.
The target of experiment [7] is Tyrosine-protein kinase Fer (Homo sapiens) (UniProt P16591). The experiment can be described thus: Inhibition of FER (unknown origin) at 1 uM.
For experiment [8], the target named is Tyrosine-protein kinase Fes/Fps (Homo sapiens) (UniProt P07332). The experiment in a line: Inhibition of FES (unknown origin) at 1 uM.
Experiment [9] concerns the target Insulin-like growth factor 1 receptor (Homo sapiens) (UniProt P08069). The experiment can be described thus: Inhibition of IGF1R (unknown origin) at 1 uM.
Experiment [10] concerns the target Tyrosine-protein kinase JAK2 (Homo sapiens) (UniProt O60674). The experiment can be described thus: Inhibition of JAK2 (unknown origin) at 1 uM.
Experiment [11] addresses Activated CDC42 kinase 1 (Homo sapiens) (UniProt Q07912). The experiment can be described thus: Inhibition of TNK2 (unknown origin) at 1 uM.
Experiment [12] addresses Epidermal growth factor receptor (Homo sapiens) (UniProt P00533). The experiment can be described thus: Inhibition of EGFR (unknown origin) at 1 uM.
Experiment [13] deals with Vascular endothelial growth factor receptor 2 (Homo sapiens) (UniProt P35968). The experiment can be described thus: Inhibition of KDR (unknown origin) at 1 uM.
Experiment [14] has as its target Leukocyte tyrosine kinase receptor (Homo sapiens) (UniProt P29376). The experiment can be described thus: Inhibition of LTK (unknown origin) at 1 uM.
The target of experiment [15] is Mitogen-activated protein kinase 9 (Homo sapiens) (UniProt P45984). The experiment in a line: Inhibition of MAPK9 (unknown origin) at 1 uM.
Experiment [16] deals with Hepatocyte growth factor receptor (Homo sapiens) (UniProt P08581). The experiment can be described thus: Inhibition of MET (unknown origin) at 1 uM.
Experiment [17] concerns the target Serine/threonine-protein kinase Nek2 (Homo sapiens) (UniProt P51955). The experiment in a line: Inhibition of NEK2 (unknown origin) at 1 uM.
Experiment [18] has as its target Proto-oncogene tyrosine-protein kinase receptor Ret (Homo sapiens) (UniProt P07949). The experiment in a line: Inhibition of RET (unknown origin) at 1 uM.
Experiment [19] concerns the target ALK tyrosine kinase receptor (Homo sapiens, UniProt Q9UM73, L1196M).
Description: Inhibition of ALK L1196M mutant (unknown origin) at 1 uM
The subject of experiment [20] is ALK tyrosine kinase receptor (Homo sapiens), Q9UM73 [L1196M]. The experiment in a line: Potency index, ratio of crizotinib IC50 to compound IC50 for ALK L1196M mutant (unknown origin) at 1 uM.
In experiment [21] the test system is BaF3. The experiment in a line: Potency index, ratio of crizotinib IC50 to compound IC50 for mouse BAF3 cells expressing CD74/ROS1 G2032R mutant incubated for 72 hrs by CCK8 assay. The class given is functional. In general terms: Tetrazolium dyes change colour on reduction, which living cells bring about.
In experiment [22] the test system is ALK tyrosine kinase receptor (Homo sapiens), Q9UM73 [L1196M]. The settings on record: at 1 µM.
Description: Inhibition of ALK L1196M mutant (unknown origin) at 1 uM relative to control
In experiment [23] the test system is ALK tyrosine kinase receptor (Homo sapiens), Q9UM73 [F1174L]. The settings on record: at 1 µM.
Experiment [24] has as its system ALK tyrosine kinase receptor (Homo sapiens), Q9UM73 [C1156Y]. Particulars: at 1 µM.
The test system of experiment [25] is ALK tyrosine kinase receptor (Homo sapiens), Q9UM73 [R1275Q]. The settings on record: at 1 µM.
Experiment [26] has as its system BaF3. The experiment in a line: cells. The settings on record: Mus musculus, BaF3, 72 h.
Description: Antiproliferative activity against mouse BAF3 cells expressing wild type CD74/ROS1 assessed as reduction in cell viability incubated for 72 hrs by CCK8 assay
Experiment [27] has as its system BaF3. The experiment can be described thus: cells. Particulars: Mus musculus, BaF3, 72 h. The source holds these as a separate data set.
Description: Antiproliferative activity against mouse BAF3 cells expressing CD74/ROS1 G2032R mutant assessed as reduction in cell viability incubated for 72 hrs by CCK8 assay
Experiment [28] concerns BaF3. The experiment can be described thus: cells. The settings on record: Mus musculus, BaF3, 72 h. The source holds these as a separate data set.
Description: Antiproliferative activity against mouse BAF3 cells expressing CD74/ROS1 L2026M mutant assessed as reduction in cell viability incubated for 72 hrs by CCK8 assay

T1 sequence (P08922 whole entry): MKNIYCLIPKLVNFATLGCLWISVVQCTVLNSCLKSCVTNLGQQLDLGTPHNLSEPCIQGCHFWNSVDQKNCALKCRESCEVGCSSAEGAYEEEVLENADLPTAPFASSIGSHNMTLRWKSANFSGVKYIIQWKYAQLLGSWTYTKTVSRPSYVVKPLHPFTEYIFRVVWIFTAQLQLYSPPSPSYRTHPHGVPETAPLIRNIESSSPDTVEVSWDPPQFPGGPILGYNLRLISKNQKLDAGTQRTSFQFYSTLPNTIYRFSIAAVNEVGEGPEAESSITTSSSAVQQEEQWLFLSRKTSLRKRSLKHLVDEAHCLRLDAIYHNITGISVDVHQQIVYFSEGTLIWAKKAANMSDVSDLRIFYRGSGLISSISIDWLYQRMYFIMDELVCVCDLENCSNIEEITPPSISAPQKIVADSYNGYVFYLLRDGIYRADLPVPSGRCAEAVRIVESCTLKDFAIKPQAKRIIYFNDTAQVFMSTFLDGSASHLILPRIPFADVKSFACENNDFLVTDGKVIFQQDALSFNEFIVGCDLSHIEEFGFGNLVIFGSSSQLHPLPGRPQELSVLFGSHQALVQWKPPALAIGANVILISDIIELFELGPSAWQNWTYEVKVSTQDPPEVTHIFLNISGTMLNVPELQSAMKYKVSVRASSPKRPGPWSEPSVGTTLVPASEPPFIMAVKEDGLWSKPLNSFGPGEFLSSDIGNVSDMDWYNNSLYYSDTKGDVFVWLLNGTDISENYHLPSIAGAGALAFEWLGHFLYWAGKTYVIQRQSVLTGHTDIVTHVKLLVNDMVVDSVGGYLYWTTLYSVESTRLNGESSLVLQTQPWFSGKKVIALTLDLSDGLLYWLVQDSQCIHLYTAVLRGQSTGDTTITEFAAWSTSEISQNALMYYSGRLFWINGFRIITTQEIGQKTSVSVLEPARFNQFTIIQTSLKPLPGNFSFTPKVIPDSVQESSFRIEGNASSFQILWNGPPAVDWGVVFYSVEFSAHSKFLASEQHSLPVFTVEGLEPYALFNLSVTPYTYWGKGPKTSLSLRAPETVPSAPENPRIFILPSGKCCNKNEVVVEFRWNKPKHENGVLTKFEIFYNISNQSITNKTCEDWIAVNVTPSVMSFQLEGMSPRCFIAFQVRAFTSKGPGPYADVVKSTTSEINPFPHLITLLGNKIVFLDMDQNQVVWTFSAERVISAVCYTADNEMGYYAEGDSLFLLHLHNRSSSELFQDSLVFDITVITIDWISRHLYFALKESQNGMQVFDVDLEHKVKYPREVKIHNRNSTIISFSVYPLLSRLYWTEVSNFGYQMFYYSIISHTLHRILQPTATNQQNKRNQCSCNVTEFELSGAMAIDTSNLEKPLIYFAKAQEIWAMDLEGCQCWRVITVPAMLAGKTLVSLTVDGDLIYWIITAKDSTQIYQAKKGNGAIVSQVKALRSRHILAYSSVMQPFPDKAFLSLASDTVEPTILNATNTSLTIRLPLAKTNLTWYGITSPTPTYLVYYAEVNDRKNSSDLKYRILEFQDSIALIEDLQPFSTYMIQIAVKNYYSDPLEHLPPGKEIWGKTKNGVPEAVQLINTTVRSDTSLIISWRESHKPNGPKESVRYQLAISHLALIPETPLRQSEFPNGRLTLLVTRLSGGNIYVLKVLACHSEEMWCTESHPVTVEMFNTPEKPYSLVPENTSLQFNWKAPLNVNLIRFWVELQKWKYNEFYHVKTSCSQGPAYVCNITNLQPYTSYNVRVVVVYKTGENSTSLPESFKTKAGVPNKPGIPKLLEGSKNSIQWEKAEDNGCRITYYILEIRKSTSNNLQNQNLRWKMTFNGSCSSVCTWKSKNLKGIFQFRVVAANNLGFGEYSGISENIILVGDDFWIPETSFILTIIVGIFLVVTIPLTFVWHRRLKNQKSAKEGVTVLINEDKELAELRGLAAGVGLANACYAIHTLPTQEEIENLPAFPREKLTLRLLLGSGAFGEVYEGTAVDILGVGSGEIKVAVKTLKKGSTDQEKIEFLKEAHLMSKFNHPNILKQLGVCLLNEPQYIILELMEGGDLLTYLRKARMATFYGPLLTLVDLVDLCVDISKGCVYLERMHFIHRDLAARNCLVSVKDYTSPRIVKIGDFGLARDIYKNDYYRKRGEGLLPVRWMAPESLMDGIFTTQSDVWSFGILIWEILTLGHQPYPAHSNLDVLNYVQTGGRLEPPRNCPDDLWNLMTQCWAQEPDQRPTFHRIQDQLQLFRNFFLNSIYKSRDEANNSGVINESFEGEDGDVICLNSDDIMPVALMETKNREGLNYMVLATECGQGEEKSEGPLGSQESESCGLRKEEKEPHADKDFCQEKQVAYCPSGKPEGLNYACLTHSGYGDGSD
Tyrosine-protein kinase Fer (Homo sapiens), sequence (P16591 whole entry, looked up): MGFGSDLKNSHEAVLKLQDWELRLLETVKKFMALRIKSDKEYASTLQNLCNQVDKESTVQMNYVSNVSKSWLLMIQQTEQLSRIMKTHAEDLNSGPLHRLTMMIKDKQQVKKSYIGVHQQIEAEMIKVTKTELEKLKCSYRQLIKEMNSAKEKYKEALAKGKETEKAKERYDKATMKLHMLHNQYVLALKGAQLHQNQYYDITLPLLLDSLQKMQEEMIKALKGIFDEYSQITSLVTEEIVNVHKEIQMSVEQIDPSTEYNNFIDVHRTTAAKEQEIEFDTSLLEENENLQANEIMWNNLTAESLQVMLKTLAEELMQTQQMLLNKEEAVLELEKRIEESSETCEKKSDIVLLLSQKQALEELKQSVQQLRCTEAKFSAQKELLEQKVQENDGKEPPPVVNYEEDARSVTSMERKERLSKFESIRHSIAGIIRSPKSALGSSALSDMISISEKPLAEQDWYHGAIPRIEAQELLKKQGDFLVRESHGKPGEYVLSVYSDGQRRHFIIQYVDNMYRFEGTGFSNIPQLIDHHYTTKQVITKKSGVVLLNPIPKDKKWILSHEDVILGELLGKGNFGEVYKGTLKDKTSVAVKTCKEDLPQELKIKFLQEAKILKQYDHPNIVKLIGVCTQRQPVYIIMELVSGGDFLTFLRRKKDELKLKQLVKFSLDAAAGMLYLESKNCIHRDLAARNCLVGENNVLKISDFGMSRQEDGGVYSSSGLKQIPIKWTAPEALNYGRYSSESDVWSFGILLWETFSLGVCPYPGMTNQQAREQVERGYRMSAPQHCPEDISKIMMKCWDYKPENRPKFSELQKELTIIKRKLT
ALK tyrosine kinase receptor (Homo sapiens, UniProt Q9UM73, L1196M), sequence (Q9UM73 19-1620 L1196M limits assumed): as the sequence (Q9UM73 19-1620 limits assumed) above, with L1178M counted along it
Description for HCC78: Antiproliferative activity against ROS1-addicted human HCC78 cells assessed as reduction in cell viability incubated for 72 hrs by MTT assay
Description for NCI-H3122: Antiproliferative activity against ALK-addicted human NCI-H3122 cells assessed as reduction in cell viability incubated for 72 hrs by MTT assay

Turning to `CN1CCC(n2cc(Nc3cc(N4CCC[C@H](C(=O)NCc5ccc(C#N)cc5)C4)ccn3)cn2)CC1`, the IC50 entry in experiment [1] was “Not Active”; in the experiment on A549 it was 53.8 µM; in the experiment on NCI-H3122, 15.1 µM; in the experiment on HCC78, 87.6 µM.

In the case of `COc1cc(N2CCC(N3CCN(C)CC3)CC2)ccc1Nc1cc(N2CCC[C@@H](C(=O)NCc3ccc(OC(F)(F)F)cc3)C2)ccn1`, the IC50 is more than 10 µM in [2], 2.79 µM with A549, 8.86 µM in the experiment with NCI-H3122 and 10.9 µM in the experiment with HCC78.

For the molecule `COc1cc(N2CCC(N3CCN(C)CC3)CC2)ccc1Nc1cc(N2CCC[C@H](C(=O)NCc3ccc(OC(F)(F)F)cc3)C2)ccn1`, the IC50 stood at 2.26 µM in experiment [2], 6.6 µM in the experiment with A549, 16.6 µM in the experiment with NCI-H3122 and 11 µM in the experiment with HCC78.

Regarding `COc1cc(N2CCNCC2)ccc1Nc1cc(N2CCC[C@@H](C(=O)NCc3ccc(OC(F)(F)F)cc3)C2)ccn1`, the half-maximal inhibitory concentration (IC50) came out at 1.21 µM in experiment [2]; 0.56 µM in experiment [3]; 5.11 µM in the experiment with A549; 10.7 µM in the experiment on NCI-H3122; 25.3 µM with HCC78. The inhibition in experiment [4] was 76%.

`COc1cc(Nc2cc(N3CCC[C@H](C(=O)NCc4ccc(C)cc4)C3)ccn2)cc(OC)c1OC`: the IC50 was found to be 12.1 µM in experiment [2], 12.7 µM with A549, 27.8 µM in the experiment with NCI-H3122 and 24.5 µM with HCC78.

With `COc1cc(N2CCN(C)CC2)ccc1Nc1cc(N2CCC[C@H](C(=O)NCc3ccc(OC(F)(F)F)cc3)C2)ccn1`, the IC50 in [2] was found to be 1.08 µM; in the experiment on A549, 7.79 µM; in the experiment on NCI-H3122, 7.53 µM; with HCC78 it was 14.9 µM.

`Cc1cc(Nc2cc(N3CCC[C@@H](C(=O)NCc4ccc(OC(F)(F)F)cc4)C3)ccn2)ccc1NC1CCN(C)CC1`: the IC50 is more than 10 µM in experiment [2], 6.51 µM in the experiment with A549, 10.4 µM with NCI-H3122 and 13.5 µM in the experiment with HCC78.

`COc1ccc(CNC(=O)[C@H]2CCCN(c3ccnc(Nc4cn(C)nc4C)c3)C2)cc1OC`: the IC50 result was “Not Active” in [1], more than 100 µM with A549, more than 100 µM in the experiment on NCI-H3122 and more than 100 µM in the experiment with HCC78.

As to `Cc1nn(C)cc1Nc1cc(N2CCC[C@@H](C(=O)NCc3ccc(OC(F)(F)F)cc3)C2)ccn1`, the IC50 in [2] was determined as 7.3 µM; in the experiment with A549 it was 9.74 µM; in the experiment with NCI-H3122, 13.9 µM; with HCC78, 80.7 µM.

Turning to `Cc1cc(Nc2cc(N3CCC[C@H](C(=O)NCc4ccc(OC(F)(F)F)cc4)C3)ccn2)ccc1NC1CCN(C)CC1`, the IC50 was more than 10 µM in experiment [2], 7.07 µM in the experiment with A549, 5.1 µM with NCI-H3122 and 7.76 µM in the experiment with HCC78.

`O=C(NCc1ccc(OC(F)(F)F)cc1)[C@H]1CCCN(c2ccnc(Nc3ncccn3)c2)C1`: the IC50 result was “Not Active” in [1], 17.2 µM in the experiment with A549, 44.3 µM with NCI-H3122 and 36.5 µM with HCC78.

For the molecule `COc1ccc(CNC(=O)[C@H]2CCCN(c3ccnc(Nc4cnn(C5CCNCC5)c4)c3)C2)cc1OC`, the IC50 result in experiment [1] is “Not Active”; in the experiment with A549 it was more than 100 µM; in the experiment with NCI-H3122 it was 51.7 µM; with HCC78, 83.7 µM.

With `Cc1ccc(CNC(=O)[C@H]2CCCN(c3ccnc(Nc4cn(C)nc4C)c3)C2)cc1`, the IC50 result was “Not Active” in experiment [1], 39.6 µM in the experiment on A549, 40.7 µM with NCI-H3122 and 67.2 µM in the experiment with HCC78.

Turning to `COc1cc(N2CCC(N3CCOCC3)CC2)ccc1Nc1cc(N2CCC[C@H](C(=O)NCc3ccc(OC(F)(F)F)cc3)C2)ccn1`, the IC50 in experiment [2] is 3.39 µM; in the experiment with A549, 6.93 µM; with NCI-H3122 it was 5.81 µM; with HCC78, 15.2 µM.

As to `Cc1nn(C)cc1Nc1cc(N2CCC[C@H](C(=O)NCc3ccc(OC(F)(F)F)cc3)C2)ccn1`, the IC50 turned out to be 1.26 µM in experiment [2], 11.3 µM in the experiment on A549, 20.2 µM in the experiment with NCI-H3122 and 34.6 µM in the experiment on HCC78.

As to `COc1ccc(CNC(=O)[C@H]2CCCN(c3ccnc(Nc4cnn(C5CCN(C)CC5)c4)c3)C2)cc1OC`, the IC50 entry in experiment [1] is “Not Active”; in the experiment on A549 it was more than 100 µM; with NCI-H3122, more than 100 µM; with HCC78 it was more than 100 µM.

In the case of `COc1ccc(CNC(=O)[C@H]2CCCN(c3ccnc(Nc4cnn(C)c4)c3)C2)cc1OC`, the IC50 entry in experiment [1] is “Not Active”; with A549, more than 100 µM; in the experiment on NCI-H3122, more than 100 µM; in the experiment on HCC78 it was more than 100 µM.

Consider `COc1cc(N2CCNCC2)ccc1Nc1cc(N2CCC[C@H](C(=O)NCc3ccc(OC(F)(F)F)cc3)C2)ccn1`, for which the inhibition in experiment [5] was -5%; in experiment [6] it was 1%; in [7] it was 6%; in experiment [8], -1%; in experiment [9], 3%; in experiment [10] it was 11%. The inhibition in experiment [11] was -3%; in experiment [12], 11%; in experiment [13], -3%; in experiment [14], 91%; in experiment [15] it was -10%; in [16] it was 6%. In addition, the inhibition was -7% in experiment [17]; -3% in experiment [18]; 95% in [4]; 93% in experiment [22]; 80% in experiment [23]; 100% in [24]. Moreover, the inhibition in experiment [25] amounted to 92%. Also, the IC50 worked out at 0.0413 µM in [19]; 0.53 µM in experiment [2]; 0.174 µM in experiment [3]; 3.64 µM in the experiment on A549; 6.45 µM with NCI-H3122; 10.7 µM in the experiment with HCC78. The results for the IC50 with BaF3 [26], in the experiment on BaF3 [27] and in the experiment with BaF3 [28] were 0.138 µM, 0.105 µM and 0.234 µM, respectively. The results for the Ratio IC50 (in [20]; in the experiment with BaF3 [21]) were 2 and 6, respectively.

As for `COc1cc(N2CCC(N3CCOCC3)CC2)ccc1Nc1cc(N2CCC[C@@H](C(=O)NCc3ccc(OC(F)(F)F)cc3)C2)ccn1`, the concentration for half-maximal inhibition (IC50) in [2] was more than 10 µM; in the experiment with A549, 6.45 µM; with NCI-H3122, 8.3 µM; in the experiment with HCC78, 13.7 µM.

By IC50 is commonly meant the concentration that gives 50% inhibition. A lower IC50 goes with inhibition by little substance. What is called inhibition is the change of the read-out against control, counted positive when it falls.
